This passage reports IC50 and melting point results from patent publication US7560591B2, “Benzamidine derivatives having anti-inflammatory and immunosuppressive activity” (Rotta Research Laboratorium S.p.A., priority 2001, dated 2009).

SMILES strings stand for the structures. Bounds are passed on as bounds.

Data set [1] has as its system formation of NO, measured as NO2− (nitrites). Kind of data set: Inhibition of NO (nitrite) formation in rabbit joint chondrocytes stimulated by IL-1β. The data set is classed as cell-based. The note with it: Oryctolagus cuniculus, Chondrocyte, IL-1β 1 ng/ml, 48 hours, NO determined as nitrites. As to the method: (§1) a) The activity in inhibiting the formation of NO, measured as NO2^− (nitrites), PGE2, and neutral protease, was investigated in vitro on culture broths of rabbit joint chondrocytes stimulated by cytokine IL-1β (1 ng/ml) for 48 hours. For the preparation of the chondrocytes, the method described by Berenbaum et al [FEBS Letters 340, 51-55 (1994)] was followed. Briefly, fragments of cartilage removed under sterile conditions from the heads of rabbit shoulder, hip and knee joints were chopped finely and digested at 37° C. by hyaluronidase, trypsin and collagenase solutions, giving rise, after filtration on sterile gauze and centrifuging at 600×g and suitable dilution with 10% DMEM-FCS, to a concentration of approximately 1×10^5 cells per well. The cells were kept in these conditions until confluence (about 15 days), the broth being changed every 3 days. At this point, the products under test, dissolved in the medium, were added to each test sample and, after 20 minutes, 350 μl IL-1β was added in order to have a final concentration of 1 ng/ml. The duration of the stimulation was 48 hours at 37° C. (incubation air-CO2 7%). Measurement of the nitrites, as described by Green et al. [Anal. Biochem. 126, 131-138 (1982)], and of the PGE2s by RIA measurement, was then performed on the cell supernatant fluid. The measurement of the neutral proteases was performed in the cell supernatant fluid containing the p-aminophenyl mercury acetate (APMA) activator with the use of azocoll as the substrate and with incubation at 37° C. for 17 h as described by Chavira et al. [Anal. Biochem. 136, 446-450 (1984)]. In order to evaluate the direct inhibitory effect of the compounds under test on the hydrolytic activity of the cell supernatant fluid, they were added to the supernatant fluid containing the proteases induced by IL-1β and already activated by AMPA.
(§2) The results obtained are shown in Table 3, in which the IC50, that is, the concentration (micromolar) of antagonist which can inhibit the formation of nitrites, PGE2s, and neutral proteases, respectively, by 50% relative to the control group, that is, to the cells stimulated with IL-1β but without the addition of antagonists, is given for some of the compounds of the invention already given by way of example in Table 2.

The subject of a further data set is formation of PGE2. The experiment in a line: Inhibition of PGE2 formation in rabbit joint chondrocytes stimulated by IL-1β (RIA). The format is cell-based. The following applies: Oryctolagus cuniculus, Chondrocyte, IL-1β 1 ng/ml, 48 hours. As for the experimental part:
as §1, §2

Data set [2] relates to neutral proteases (metalloproteases). Kind of data set: Inhibition of neutral proteases (metalloproteases) in supernatant of IL-1β-stimulated rabbit joint chondrocytes, azocoll substrate. The data set is classed as biochemical. The note with it: IL-1β 1 ng/ml, 48 hours, APMA-activated supernatant, read-out: MP (metalloproteases) IC50. As to the method:
as §1, §2

Regarding `CCCNC(=S)Nc1ccc(NC(C)=N)cc1` [Compound I-2], the melting point – broadly, the temperature of the solid-liquid transition – was 188.1 to 189.1 °C. For the same compound, in data set [1], the IC50 (commonly the concentration needed to halve the response being measured) was more than 300 µM. In the data set with formation of PGE2, this compound came in with an IC50 of more than 300 µM. Also, the IC50 in data set [2] amounted to 30 µM.
In turn, `CCCCCCCNC(=S)Nc1ccc(NC(C)=N)cc1` [Compound I-6] had a melting point of 177.8 to 178.4 °C. In data set [1], the 50% inhibitory concentration (IC50) was 30 µM. Besides, the IC50 in the data set with formation of PGE2 was determined as 20 µM. Further, the IC50 in data set [2] amounted to 20 µM.
